The numbers were not newly measured in publication PMC11904481 (ESMO Open, 2025), which cites them from elsewhere.

The structures appear in SMILES notation. Several values for one entry are separate records, joined by “and”; a condition that tells them apart may be missing. Identical values can stand only once.

The series deals with patients. To be noted: cited from earlier work; for diarrhea / nausea: patients treated with oral ERK inhibitor.
Where [1] appears, read: ocular TEAE, oral ERK inhibitor.

For `Cn1nccc1Nc1nccc(-c2cc3c(s2)C(C)(C)N(CCN2CCOCC2)C3=O)n1` [LY3214996], the blurred vision under setting [1] is 15%.
As to `CS[C@@]1(C(=O)Nc2ccc3[nH]nc(-c4ccc(OC(C)C)nc4)c3c2)CCN(CC(=O)N2CC=C(c3ccc(-c4ncn(C)n4)cc3)CC2)C1` [MK-8353], the diarrhea is > 40% and 44%; the nausea is listed as 28%. In addition, the blurred vision under setting [1] is listed as 8%. Further, under “oral ERK inhibitor”, the oropharyngeal pain is reported as 8%.
Consider `Cc1cnc(NC2CCOCC2)nc1-n1cnc(C(=O)N[C@H](CN)c2cc(F)cc(Cl)c2)c1` [ASN007], for which the diarrhea was 30% and the nausea is 30%.
Take `Cn1nccc1Nc1nccc(-c2ccn([C@H](CO)c3ccc(Cl)c(F)c3)c(=O)c2)n1` [GDC-0994, (S)-1-(1-(4-chloro-3-fluorophenyl)-2-hydroxyethyl)-4-(2-((1-methyl-1H-pyrazol-5-yl)amino)pyrimidin-4-yl)pyridin-2(1H)-one]: the diarrhea is on record as 49% and the nausea is on record as 32%. Also, under setting [1], the blurred vision was 13%.
With `CC(C)Nc1cc(-c2c[nH]c(C(=O)N[C@H](CO)c3cccc(Cl)c3)c2)c(Cl)cn1` [ulixertinib], the diarrhea is > 40% and 48%; the nausea was 42%. Besides, under setting [1], the retinopathy was 14%. Besides, the “patients with dose reductions due to toxicity” value (phase I clinical trial, oral) was 32%.
